# Source: ChEMBL document CHEMBL5604063, “ASAP - DENV-2 NS2B-NS3 protease fluorescence dose response” (2024)
# Several values for one entry are separate records, joined by “and”; a condition that tells them apart may be missing. Equal entries are not always repeated.
# Tests used:
# [1] = target: T1, Genome polyprotein (dengue virus type 2, UniProt P29990); assay type: functional, Thailand/16681/1984
# [2] = target: T1, Genome polyprotein; assay type: functional, Thailand/16681/1984; remark: listed apart in the source
# T1 sequence (P29990 1346-1475 limits assumed): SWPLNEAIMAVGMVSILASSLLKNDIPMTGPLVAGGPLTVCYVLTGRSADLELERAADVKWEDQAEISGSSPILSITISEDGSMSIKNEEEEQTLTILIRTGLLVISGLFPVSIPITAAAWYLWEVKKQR
# T1 sequence (P29990 1476-2093 limits assumed): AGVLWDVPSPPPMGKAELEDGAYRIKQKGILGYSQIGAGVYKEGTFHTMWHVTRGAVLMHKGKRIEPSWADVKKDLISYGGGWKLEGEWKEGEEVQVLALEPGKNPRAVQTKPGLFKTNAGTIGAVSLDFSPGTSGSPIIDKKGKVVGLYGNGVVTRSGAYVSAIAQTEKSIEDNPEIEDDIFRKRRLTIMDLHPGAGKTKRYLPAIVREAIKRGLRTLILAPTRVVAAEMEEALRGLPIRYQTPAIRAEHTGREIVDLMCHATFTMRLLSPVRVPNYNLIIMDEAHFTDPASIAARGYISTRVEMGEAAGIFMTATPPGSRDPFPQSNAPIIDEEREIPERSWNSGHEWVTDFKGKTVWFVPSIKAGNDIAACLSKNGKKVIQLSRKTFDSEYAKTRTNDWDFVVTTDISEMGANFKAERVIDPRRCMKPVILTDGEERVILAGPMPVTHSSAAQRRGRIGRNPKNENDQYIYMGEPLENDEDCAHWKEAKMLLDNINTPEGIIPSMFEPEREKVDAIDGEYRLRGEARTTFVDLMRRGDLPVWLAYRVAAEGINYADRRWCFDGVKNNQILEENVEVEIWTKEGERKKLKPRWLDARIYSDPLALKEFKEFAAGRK
SMILES,IC50 [1],IC50 [2]
Cc1ncc2c(n1)CCC[C@H]2NC(=O)c1cccc2c1CC(=O)N2,> 99.5 µM,> 100 µM
NCCc1csc2cc(C(=O)Nc3cc([C@H]4CCOC4)ccn3)ccc12,> 99.5 µM,> 100 µM
O=C1Cc2c(cccc2C(=O)N[C@H]2C[C@H](OC(F)F)C2)N1,> 99.5 µM,> 100 µM
O=C(Nc1ccc2c(c1)CNC2)c1cc(F)cc2[nH]c(-c3cnc(C4CC4)o3)nc12,> 49.7 µM,> 100 µM
O=C1Cc2c(cccc2C(=O)Nc2cc3c(cn2)OCCO3)N1,> 99.5 µM,> 100 µM
Cc1c(C(=O)Nc2ccc3c(c2)CCCC(=O)N3C)cc(C2CC2)n1C,> 99.5 µM,> 100 µM
O=C(Nc1cc2c(c(-c3c[nH]c(=O)c(F)c3)c1)CNC2)c1cc(F)cc2[nH]ncc12,68.4 µM,38.6 µM and 68.6 µM
COc1cc(OC)cc([C@H]2CCN(C(=O)Nc3ccc4c(c3)CNC4)C2)c1,> 99.5 µM,> 100 µM
O=C(NCC(F)F)[C@H](Nc1ccc2c(c1)CNC2)c1cc(Cl)ccc1Cl,> 99.5 µM,> 100 µM
COCn1ncc2c(C(=O)Nc3ccc4c(c3)CNC4)cc(Cl)cc21,> 99.5 µM,> 100 µM
COc1cccc(-c2nc3c(C(=O)Nc4ccc5c(c4)CNC5)cc(F)cc3[nH]2)c1,8.12 µM and 5.22 µM,> 100 µM
CO[C@H]1C[C@H](n2ncc3c(C(=O)Nc4ccc5c(c4)CNC5)cc(Cl)cc32)C1,> 99.5 µM,> 100 µM
O=C1Cc2c(cccc2C(=O)N[C@H]2CCC[C@@H](C(=O)NC3CC3)C2)N1,> 99.5 µM,> 100 µM
O=C1Cc2c(cccc2C(=O)N[C@H]2COc3cc(Br)cnc32)N1,> 99.5 µM,> 100 µM
O=C(Nc1ccc2c(c1)CNC2)c1cc(F)cc2[nH]c(CC[C@H]3CCCOC3)nc12,76.2 µM,> 100 µM
O=C1Cc2c(cccc2C(=O)Nc2ccn(C[C@H]3CCOC3)n2)N1,> 99.5 µM,> 100 µM
Cc1cc(N2CCC(NC(=O)c3cccc4c3CC(=O)N4)CC2)[nH]n1,> 99.5 µM,> 100 µM
O=C(Nc1cc(-c2cccnc2)ccn1)c1cc(C2CC2)on1,> 99.5 µM,> 100 µM
CCO[C@@H]1CC[C@H]1NC(=O)c1cccc2c1CC(=O)N2,> 99.5 µM,> 100 µM
O=C1Cc2c(cccc2C(=O)NC[C@H]2C[C@@H](n3cccn3)C2)N1,> 99.5 µM,> 100 µM
O=C1Cc2c(cccc2C(=O)N[C@H]2CCc3ncsc3C2)N1,> 99.5 µM,> 100 µM
Cc1nc(C2CC2)[nH]c1C(=O)Nc1cc(-c2cccnc2)ccn1,> 99.5 µM,> 100 µM

SMILES,IC50 [1],IC50 [2]
CN1C(=O)CC[C@H]1c1nc2c(C(=O)Nc3ccc4c(c3)CNC4)cc(F)cc2[nH]1,> 99.5 µM,> 100 µM
O=C1Cc2c(cccc2C(=O)N[C@H]2CC[C@H](OC3CCCC3)CC2)N1,> 99.5 µM,> 100 µM
CCOCC1(c2nc3c(C(=O)Nc4ccc5c(c4)CNC5)cc(F)cc3[nH]2)CC1,> 99.5 µM,> 100 µM
NCc1cccc(-c2csc3cc(C(=O)Nc4ccc5c(c4)CNC5)ccc23)c1,22.4 µM and 14.7 µM,> 100 µM
O=C(Nc1ccc2c(c1)CNC2)c1cc(F)cc2[nH]c(-c3cccc(F)c3)nc12,4.86 µM and 4.62 µM,44.1 µM and 36 µM
O=C1Cc2c(cccc2C(=O)N[C@H]2C[C@@H](c3ncc[nH]3)C2)N1,> 99.5 µM,> 100 µM
Cc1nc(C2(NC(=O)c3cccc4c3CC(=O)N4)CCC2)no1,> 99.5 µM,> 100 µM
C[C@H]1C[C@H]1c1cc(C(=O)Nc2cc(-c3cccnc3)ccn2)no1,> 99.5 µM,> 100 µM
O=C1Cc2c(cccc2C(=O)NC2(c3ncccc3F)CC2)N1,> 99.5 µM,> 100 µM
O=C1Cc2c(cccc2C(=O)NC2CCN(c3nccs3)CC2)N1,> 99.5 µM,> 100 µM
O=C(NCC(F)F)[C@H](Nc1ccc2c(c1)CNC2)c1cccc2c1CCC2,> 99.5 µM,> 100 µM
CCOc1cccc(-c2cccc(NC(=O)c3cc(C4CC4)n(C)c3C)n2)c1,> 99.5 µM,> 100 µM
Cc1[nH]c(-c2ccccc2)cc1C(=O)Nc1cc(-c2cccnc2)ccn1,> 99.5 µM,> 100 µM
CC(C)NC(=O)[C@H](Nc1ccc2c(c1)CN(C)C2)c1cc(Cl)cc2[nH]ncc12,> 99.5 µM,57.6 µM and > 100 µM
Cc1c(C(=O)Nc2cccc(-c3ccc(O)nc3)c2)cc(C2CC2)n1C,> 99.5 µM,> 100 µM
CCc1cc2c(cc1NC(=O)c1cc(F)cc3[nH]ncc13)CNC2,> 99.5 µM,> 100 µM
CC1(NC(=O)c2cccc3c2CC(=O)N3)CCOCC1,> 99.5 µM,> 100 µM
O=C(Nc1ccc2c(c1)CNC2)c1ccc2c(C3=CCNCC3)csc2c1,52.6 µM and 43.4 µM,> 100 µM
COc1ccc(Cl)cc1[C@H](Nc1ccc2c(c1)CNC2)C(=O)NCC(F)F,> 99.5 µM,> 100 µM
O=C1Cc2c(cccc2C(=O)N[C@H]2CCC23CCOCC3)N1,> 99.5 µM,> 100 µM
O=C1Cc2c(cccc2C(=O)Nc2ccc(-c3cccnc3)cn2)N1,> 99.5 µM,> 100 µM
COc1ccccc1Cn1cnc2cc(C(=O)Nc3ccc4c(c3)CNC4)ccc21,> 99.5 µM,> 100 µM

SMILES,IC50 [1],IC50 [2]
CC(C)(O)c1cncc(NC(=O)c2cccc3c2CC(=O)N3)c1,> 99.5 µM,> 100 µM
C[C@H](NC(=O)c1cccc2c1CC(=O)N2)c1cccc(S(C)(=O)=O)c1,> 99.5 µM,> 100 µM
O=C(NCC(F)F)[C@H](Nc1ccc2c(c1)CNC2)c1cc(Cl)cc2c1CCC2,> 99.5 µM,> 100 µM
COC(=O)N1CCc2cc(NC(=O)c3cc(C4CC4)n(C)c3C)ccc21,> 99.5 µM,> 100 µM
O=C(NCC(F)F)[C@H](Nc1ccc2c(c1)CNC2)c1cc(Cl)cc2ccoc12,> 99.5 µM,> 100 µM
O=C(Nc1ccc2c(c1)CNC2)c1cccc2c1[C@]1(CCN(C(=O)OCc3ccccc3)C1)C(=O)N2,> 99.5 µM,> 100 µM
O=C1Cc2c(cccc2C(=O)N[C@H]2C[C@H](c3ccon3)C2)N1,> 99.5 µM,> 100 µM
O=C1Cc2c(cccc2C(=O)N[C@H]2CCSC3(CCOCC3)C2)N1,> 99.5 µM,> 100 µM
CC(C)n1ncc2c(C(=O)Nc3ccc4c(c3)CNC4)cc(Cl)cc21,> 99.5 µM,> 100 µM
O=C1Cc2c(cccc2C(=O)NC2(c3ccc(O)nc3)CC2)N1,> 99.5 µM,> 100 µM
Cc1cc(=O)[nH]c(-c2cccc(NC(=O)c3cc(C4CC4)n(C)c3C)c2)n1,> 99.5 µM,> 100 µM
Cc1ccc(NC(=O)c2cc(C3CC3)n(C)c2C)cc1-c1cccnc1,> 99.5 µM,> 100 µM
NC(=O)N1CCc2ccc(NC(=O)c3cccc4c3CC(=O)N4)cc21,> 99.5 µM,> 100 µM
Cc1[nH]nc2c1CC[C@H](NC(=O)c1cccc3c1CC(=O)N3)C2,> 99.5 µM,> 100 µM
COc1cc(C#N)cc([C@H](Nc2ccc3c(c2)CNC3)C(=O)NCC(F)F)c1,> 99.5 µM,> 100 µM
N#Cc1csc2cc(C(=O)Nc3ccc4c(c3)CNC4)ccc12,> 99.5 µM,> 100 µM
O=C(Nc1ccc2c(c1)CNC2)c1cc(F)cc(C2=CCOCC2)c1,> 49.7 µM,> 100 µM
Cc1c(NC(=O)c2cccc3c2CC(=O)N3)cnn1C1CCOCC1,> 99.5 µM,> 100 µM
C=CCNC(=O)C1(NC(=O)c2cccc3c2CC(=O)N3)CCCCC1,> 99.5 µM,> 100 µM
COc1ccc([C@@H]2C[C@H]2NC(=O)c2cccc3c2CC(=O)N3)cc1,> 99.5 µM,> 100 µM
COc1cc(-c2cc(NC(=O)c3cc(F)cc4[nH]ncc34)cc3c2CNC3)ccn1,42.4 µM and 32.7 µM,29 µM and 73.2 µM
COCCN1C(=O)CCc2cc(NC(=O)c3cc(C4CC4)n(C)c3C)ccc21,> 99.5 µM,> 100 µM

SMILES,IC50 [1],IC50 [2]
Cc1c(C(=O)Nc2cccc(Cn3ccccc3=O)c2)cc(C2CC2)n1C,> 99.5 µM,> 100 µM
O=C1Cc2c(cccc2C(=O)N[C@H]2CC[C@@H](n3ccnn3)CC2)N1,> 99.5 µM,> 100 µM
CC(C)n1cc2c(C(=O)Nc3ccc4c(c3)CNC4)cc(Cl)cc2n1,> 99.5 µM,> 100 µM
COC(=O)c1cc2c(cc1NC(=O)c1cc(F)cc3[nH]ncc13)CNC2,> 99.5 µM,> 100 µM
Cc1c(C(=O)Nc2cccc(C(=O)NC3CC3)c2)cc(C2CC2)n1C,> 99.5 µM,> 100 µM
O=C1Cc2c(cccc2C(=O)NC2CC3(CCOCC3)C2)N1,> 99.5 µM,> 100 µM
Cc1c(C(=O)Nc2cc(C#N)cn(C)c2=O)cc(C2CC2)n1C,> 99.5 µM,> 100 µM
O=C(Nc1ccc2c(c1)CNC2)c1cc(F)cc2[nH]c(CCc3cccnc3)nc12,> 99.5 µM,> 100 µM
O=C1Cc2c(cccc2C(=O)N[C@H]2CCc3cnccc32)N1,> 99.5 µM,> 100 µM
C[C@H](NC(=O)c1cccc2c1CC(=O)N2)c1cc2cnccc2o1,> 99.5 µM,> 100 µM
C[C@H](NC(=O)c1cccc2c1CC(=O)N2)c1ccncc1F,> 99.5 µM,> 100 µM
CCCn1ncc2c(C(=O)Nc3ccc4c(c3)CNC4)cc(Cl)cc21,> 99.5 µM,> 100 µM
Cn1nc(CNc2ccc3c(c2)CNC3)cc1C1CC1,> 99.5 µM,> 100 µM
O=C(Nc1ccc2c(c1)CNC2)c1cc(Cl)cc2c1cnn2C1CCC1,> 99.5 µM,> 100 µM
O=C(Nc1cc(-c2cccnc2)ccn1)c1sc2c(c1Br)CNC2,> 99.5 µM,> 100 µM
O=C1Cc2c(cccc2C(=O)NC[C@H]2CCCN(c3nccs3)C2)N1,> 99.5 µM,> 100 µM
Cn1ncc(C(=O)Nc2cc(-c3cccnc3)ccn2)c1C1CC1,> 99.5 µM,> 100 µM
O=C1Cc2c(cccc2C(=O)NCC2(F)CC3(CCOCC3)C2)N1,> 99.5 µM,> 100 µM
COc1ccc(-c2nc3c(C(=O)Nc4ccc5c(c4)CNC5)cc(F)cc3[nH]2)cc1,> 99.5 µM,> 100 µM
